In patent publication US9505710B2 (priority 2015, dated 2016):
Counter-ions that a name gives are not always drawn.

Biological target: BoNT/A LC1-429 (Clostridium botulinum, UniProt P0DPI1)
Test: biochemical
Details: BoNT/A Ki (nM)

Sequence of BoNT/A LC1-429 (P0DPI1 1-429, added parts left off): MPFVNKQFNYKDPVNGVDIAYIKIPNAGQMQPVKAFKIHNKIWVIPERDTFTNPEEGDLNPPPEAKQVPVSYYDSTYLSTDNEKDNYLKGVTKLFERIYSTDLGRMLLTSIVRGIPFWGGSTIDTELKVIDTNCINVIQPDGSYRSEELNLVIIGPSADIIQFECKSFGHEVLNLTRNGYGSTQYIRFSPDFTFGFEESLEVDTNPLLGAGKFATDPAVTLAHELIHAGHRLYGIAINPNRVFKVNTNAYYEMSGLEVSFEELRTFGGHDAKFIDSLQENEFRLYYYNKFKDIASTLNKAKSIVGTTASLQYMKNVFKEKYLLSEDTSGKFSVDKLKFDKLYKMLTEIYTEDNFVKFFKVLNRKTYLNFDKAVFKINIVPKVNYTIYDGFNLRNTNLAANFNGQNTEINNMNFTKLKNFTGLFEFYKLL

Structure (SMILES)	Ki [nM]
CO[C@H](CC(=O)NO)[C@H](Cc1ccc(Cl)cc1)c1ccc(C(=O)N2CCOCC2)cc1 [Example 4-6, (3R,4R)-5-(4-chlorophenyl)-N-hydroxy-3-methoxy-4-(4-(morpholine-4-carbonyl)phenyl)pentanamide]	11.4
CO[C@H](CC(=O)NO)[C@H](Cc1ccc(Cl)cc1)c1ccc(C(=O)N2CCCCC2)cc1 [Example 4-7, (3R,4R)-5-(4-chlorophenyl)-N-hydroxy-3-methoxy-4-(4-(piperidine-1-carbonyl)phenyl)pentanamide]	5.5
CCO[C@H](CC(=O)NO)[C@H](Cc1ccc(Cl)cc1)c1ccc(C(=O)N2CCN(C(=O)OC(C)(C)C)CC2)cc1 [Example 4-8, tert-butyl 4-(4-((2R,3R)-1-(4-chlorophenyl)-3-ethoxy-5-(hydroxyamino)-5-oxopentan-2-yl)benzoyl)piperazine-1-carboxylate]	22
CCO[C@H](CC(=O)NO)[C@H](Cc1ccc(Cl)cc1)c1ccc(C(=O)N2CCNCC2)cc1 [Example 4-9, (3R,4R)-5-(4-chlorophenyl)-3-ethoxy-N-hydroxy-4-(4-(piperazine-1-carbonyl)phenyl)pentanamide]	9.2 ± 6.1
CCO[C@H](CC(=O)NO)[C@H](Cc1ccc(Cl)cc1)c1ccc(C(=O)N(CCO)CCO)cc1 [Example 4-10, 4-((2R,3R)-1-(4-chlorophenyl)-3-ethoxy-5-(hydroxyamino)-5-oxopentan-2-yl)-N,N-bis(2-hydroxyethyl)benzamide]	16.7
CO[C@H](CC(=O)NO)[C@H](Cc1ccc(Cl)cc1)c1ccc(Cl)c(Br)c1 [Example 5-1, (3R,4R)-4-(3-bromo-4-chlorophenyl)-5-(4-chlorophenyl)-N-hydroxy-3-methoxypentanamide]	5.2
CO[C@H](CC(=O)NO)[C@H](Cc1ccc(Cl)cc1)c1ccc(Cl)c(CN2CCCCC2)c1 [Example 5-2, (3R,4R)-4-(4-chloro-3-(piperidin-1-ylmethyl)phenyl)-5-(4-chlorophenyl)-N-hydroxy-3-methoxypentanamide]	3.7
CO[C@H](CC(=O)NO)[C@H](Cc1ccc(Cl)cc1)c1ccc(Cl)c(C(=O)N2CCCCC2)c1 [Example 5-3, (3R,4R)-4-(4-chloro-3-(piperidine-1-carbonyl)phenyl)-5-(4-chlorophenyl)-N-hydroxy-3-methoxypentanamide]	13.1
CO[C@H](CC(=O)NO)[C@H](Cc1ccc(Cl)cc1)c1ccc(F)cc1F [Example 5-4, (3R,4R)-5-(4-chlorophenyl)-4-(2,4-difluorophenyl)-N-hydroxy-3-methoxypentanamide]	3.95
CO[C@H](CC(=O)NO)[C@H](Cc1ccc(Cl)cc1)c1cc(F)c(F)c(F)c1 [Example 5-5, (3R,4R)-5-(4-chlorophenyl)-N-hydroxy-3-methoxy-4-(3,4,5-trifluorophenyl)pentanamide]	5.36
CO[C@H](CC(=O)NO)[C@H](Cc1ccc(Cl)cc1)c1cc(F)c(F)c(F)c1F [Example 5-6, (3R,4R)-5-(4-chlorophenyl)-N-hydroxy-3-methoxy-4-(2,3,4,5-tetrafluorophenyl)pentanamide]	4.95
CCO[C@H](CC(=O)NO)[C@H](Cc1ccc(Cl)cc1)c1ccc(Cl)cc1 [Example 6-1, (3R,4R)-4,5-bis(4-chlorophenyl)-3-ethoxy-N-hydroxypentanamide]	4.9
CO[C@H](CC(=O)NO)[C@H](Cc1ccc(Cl)cc1)c1ccc(F)cc1 [Example 6-2, (3R,4R)-5-(4-chlorophenyl)-4-(4-fluorophenyl)-N-hydroxy-3-methoxypentanamide potassium salt]	13
CCO[C@H](CC(=O)NO)[C@H](Cc1ccc(Cl)cc1)c1ccc(F)cc1 [Example 6-3, (3R,4R)-5-(4-chlorophenyl)-3-ethoxy-4-(4-fluorophenyl)-N-hydroxypentanamide potassium salt]	8.9
CO[C@H](CC(=O)NO)[C@H](Cc1ccc(Cl)cc1C)c1ccc(F)cc1 [Example 6-4, (3R,4R)-5-(4-chloro-2-methylphenyl)-4-(4-fluorophenyl)-N-hydroxy-3-methoxypentanamide]	1.48
CO[C@H](CC(=O)NO)[C@H](Cc1ccc(Cl)cc1C)c1ccc(F)cc1 [Example 6-5, (3R,4R)-5-(4-chloro-2-methylphenyl)-4-(4-fluorophenyl)-N-hydroxy-3-methoxypentanamide potassium salt]	3.88
CCO[C@H](CC(=O)NO)[C@H](Cc1ccc(Cl)cc1Cl)c1ccc(Br)cc1 [Example 6-6, (3R,4R)-4-(4-bromophenyl)-5-(2,4-dichlorophenyl)-3-ethoxy-N-hydroxypentanamide]	4.9
CO[C@H](CC(=O)NO)[C@H](Cc1ccc(Cl)cc1)c1ccc(C(=O)N(C)C)cc1 [Example 6-7, 4-((2R,3R)-1-(4-chlorophenyl)-5-(hydroxyamino)-3-methoxy-5-oxopentan-2-yl)-N,N-dimethylbenzamide]	26.2
CO[C@H](CC(=O)NO)[C@H](Cc1ccc(Cl)cc1C)c1ccc(CN2CCOCC2)cc1F [Example 6-8, (3R,4R)-5-(4-chloro-2-methylphenyl)-4-(2-fluoro-4-(morpholinomethyl)phenyl)-N-hydroxy-3-methoxypentanamide]	45.8
CCO[C@H](CC(=O)NO)[C@H](Cc1ccc(Cl)cc1)c1ccc(Cl)c(N2CCOCC2)c1 [Example 6-9, (3R,4R)-4-(4-chloro-3-morpholinophenyl)-5-(4-chlorophenyl)-3-ethoxy-N-hydroxypentanamide]	5.8
CCO[C@H](CC(=O)NO)[C@H](Cc1ccc(Cl)cc1C)c1ccc(F)cc1F [Example 6-10, (3R,4R)-5-(4-chloro-2-methylphenyl)-4-(2,4-difluorophenyl)-3-ethoxy-N-hydroxypentanamide]	10
CCO[C@H](CC(=O)NO)[C@H](Cc1ccc(Cl)cc1)c1ccc(F)cc1F [Example 6-11, (3R,4R)-5-(4-chlorophenyl)-4-(2,4-difluorophenyl)-3-ethoxy-N-hydroxypentanamide]	10.3
CO[C@H](CC(=O)NO)[C@H](Cc1ccc(F)cc1F)c1ccc(F)cc1F [Example 6-12, (3R,4R)-4,5-bis(2,4-difluorophenyl)-N-hydroxy-3-methoxypentanamide]	29.5
O=C(C[C@@H](OCc1ccccc1)[C@H](Cc1ccc(Cl)cc1)c1ccc(F)cc1F)NO [Example 6-13, (3R,4R)-3-(benzyloxy)-5-(4-chlorophenyl)-4-(2,4-difluorophenyl)-N-hydroxypentanamide]	114
COCCO[C@H](CC(=O)NO)[C@H](Cc1ccc(Cl)cc1)c1ccc(F)cc1F [Example 6-14, (3R,4R)-5-(4-chlorophenyl)-4-(2,4-difluorophenyl)-N-hydroxy-3-(2-methoxyethoxy)pentanamide]	55.1
CCCCO[C@H](CC(=O)NO)[C@H](Cc1ccc(Cl)cc1)c1ccc(F)cc1F [Example 6-15, (3R,4R)-3-butoxy-5-(4-chlorophenyl)-4-(2,4-difluorophenyl)-N-hydroxypentanamide]	48.5
CCCO[C@H](CC(=O)NO)[C@H](Cc1ccc(Cl)cc1)c1ccc(F)cc1F [Example 6-16, (3R,4R)-5-(4-chlorophenyl)-4-(2,4-difluorophenyl)-N-hydroxy-3-propoxypentanamide]	38.5
O=C(C[C@@H](OCC1CC1)[C@H](Cc1ccc(Cl)cc1)c1ccc(F)cc1F)NO [Example 6-17, (3R,4R)-5-(4-chlorophenyl)-3-(cyclopropylmethoxy)-4-(2,4-difluorophenyl)-N-hydroxypentanamide]	52.4
